Consider two compounds from patent publication US12628858B2, “Therapy for colorectal and small intestine cancers” (Cornell University, priority 2019, dated 2026).

For this assay, the system named is Tumors from APC-/- mice. Put plainly: 13C isotopic tracing in APC-/- tumors ex vivo (LC-MS/MS). Format: cell-based, mouse. The following applies: 10 min ex vivo.

The structures appear in SMILES notation.

For `O=[13C]([13CH2]O)[13C@@H](O)[13C@H](O)[13C@H](O)[13CH2]O` [^13C-fructose, D-[U-^13C6]-Fructose], the “F1P 13C-labeled at all six positions (M+6), percentage of labeling” value came to 47.1%.
Turning to `O=[13CH][13C@H](O)[13C@@H](O)[13C@H](O)[13C@H](O)[13CH2]O` [^13C-glucose, D-[U-^13C6]-Glucose], the “percentage of fully labeled lactate” value amounted to 30.2%.
